Assay [1] has as its target HIV-2 reverse transcriptase (Human immunodeficiency virus 2). Description: Compound was evaluated for inhibition of HIV-2 reverse transcriptase using rC.dG and [3H]-dGTP as substrates at 100 ug/mL.
For assay [2] the target is unchanged. Described as above. This is another data set of the same source.
The target is the same in assay [3]. Put plainly: Evaluated for inhibition of HIV-2 reverse transcriptase.

The source of these data is BindingDB's records for doi:10.1016/s0960-894x(98)00214-5 (Glaxowellcome Medicines Research Center, 1999).

Each structure is given as a SMILES string.

For orientation: IC50 means the concentration that inhibits the measured activity by half. A higher IC50 goes with a need for much substance. On to `O=C(CCCCCCC(=O)Nc1ccc(Br)cc1C(=O)O)Nc1ccc(Br)cc1C(=O)O` [5-bromo-2-[6-(4-bromo-2-carboxyphenylcarbamoyl)hexylcarboxamido]benzoic acid], for which 7.4 µM corresponded to half-maximal inhibition in assay [1] (IC50).

In assay [2], `Cc1ccc(NC(=O)CCCCC(=O)Nc2ccc(C)cc2C(=O)O)c(C(=O)O)c1` [2-[4-(2-carboxy-4-methylphenylcarbamoyl)butylcarboxamido]-5-methylbenzoic acid] had an IC50 of 9.2 µM.

`O=C(Nc1ccc(Br)cc1C(=O)O)c1ccc(C(=O)Nc2ccc(Br)cc2C(=O)O)nc1` [5-bromo-2-{[(5-{[(4-bromo-2-carboxyphenyl)amino]carbonyl}pyridin-2-yl)carbonyl]amino}benzoic acid] showed a half-maximal inhibitory concentration (IC50) in assay [2] of 5.5 µM.

For `O=C(CCCCC(=O)Nc1ccc(Br)cc1C(=O)O)Nc1ccc(Br)cc1` [5-Bromo-2-[5-(4-bromo-phenylcarbamoyl)-pentanoylamino]-benzoic acid], the IC50 in assay [2] was determined as 32 µM.

The molecule `O=C(CCCC(=O)Nc1ccc(Cl)cc1C(=O)O)Nc1ccc(Cl)cc1C(=O)O` [2-({5-[(2-carboxy-4-chlorophenyl)amino]-5-oxopentanoyl}amino)-5-chlorobenzoic acid] displayed an IC50 in assay [3] of 9.6 µM.

In assay [3], `CSc1ccc(NC(=O)CCCCC(=O)Nc2ccc(SC)cc2C(=O)O)c(C(=O)O)c1` [2-[4-(2-carboxy-4-methylsulfanylphenylcarbamoyl)butylcarboxamido]-5-methylsulfanylbenzoic acid] came in with an IC50 of 6.9 µM.

As for `O=C(CCCCC(=O)Nc1ccc(Cl)cc1C(=O)O)Nc1ccc(Cl)cc1C(=O)O` [2-({6-[(2-carboxy-4-chlorophenyl)amino]-6-oxohexanoyl}amino)-5-chlorobenzoic acid], the half-maximal inhibitory concentration (IC50) in assay [3] is 1.8 µM.

Take `COc1ccc(NC(=O)CCCCC(=O)Nc2ccc(OC)cc2C(=O)O)c(C(=O)O)c1` [2-[4-(2-carboxy-4-methoxyphenylcarbamoyl)butylcarboxamido]-5-methoxybenzoic acid]: the half-inhibitory concentration (IC50) in assay [3] is 4.3 µM.

`O=C(CCCCC(=O)Nc1ccccc1C(=O)O)Nc1ccccc1C(=O)O` [2-({6-[(2-carboxyphenyl)amino]-6-oxohexanoyl}amino)benzoic acid] yielded an IC50 in assay [2] of 9 µM.

Consider `O=C(CCCCC(=O)Nc1ccc(Br)cc1C(=O)O)Nc1ccc(Br)cc1C(=O)O` [5-bromo-2-({6-[(4-bromo-2-carboxyphenyl)amino]-6-oxohexanoyl}amino)benzoic acid], for which, in assay [3], the IC50 is 1.7 µM.
